Experimental data taken from patent US7385039B2, “Methods and compositions for regulating imidazoline receptors” (priority 1998, dated 2008).
Entries after “also recorded” stand apart in the source; their conditions may differ.

How the values were obtained:
SH rats = assay: Mean arterial pressure and heart rate after microinjection into the RVLM of rats; assay type: in vivo, rat
Protocol: Effects of ribotide on mean arterial pressure (MAP) and heart rate (HR). Bilateral I-4-AA-RP microinjections (60 nl, 100 nmol) into the RVLM of SH rats were performed (Emsberger, P. & Haxhiu, M. A. (1997) Am. J. Physiol. 273, R1572-R1579) after the sympatho-excitatory area was confirmed by showing glutamate-induced MAP elevation ≧30 mm Hg. MAP and HR values were measured every 5 min. After each experiment, the injection site was marked by infusion of rhodamine microspheres. Changes were assessed relative to baseline values by two-way repeated measures ANOVA and Dunnett's test. A second group of SH rats (injection controls) received vehicle injections to control for injection effects and for volume artifacts due to multiple injections. Vehicle contained 2 nmol rilmenidine, a sub-threshold dose, far below that known to cause any detectable effect (Gomez, R. E., Emsberger, P., Feinland, G. & Reis, D. J. (1991) Eur. J. Pharmacol. 195, 181-191). In a follow-up study, SH rats (N=6) were given I-4-AA-RP then moxonidine. When used alone, it reduces MAP to normotensive levels (Emsberger, P., Elliott, H. L., Weimann, H.-J., Raap, A., Haxhiu, M. A., Hofferber, E., Low-Kroger, A., Reid, J. L. & Mest, H. J. (1993) Cardiovas. Drug Rev. 11, 411-431).

I3R [1] = settings: cited from earlier work
I1R = I1R model: [3H]arachidonic acid release from PC-12 cells; assay type: cell-based; settings: efaroxan 10 μM, before and throughout IAA-RP superfusion
Protocol: Assays for measuring imidazoline receptor-mediated arachidonic acid release from PC12 cells is as described in Ernsberger et al., (1995, FASEB J. 9:A114).
I1R model: [^3H]Arachidonic acid (AA) release from PC-12 cells. Assays (Emsberger, P. (1998) J. Auton. Nerv. Syst. 72, 147-154 Ernsberger, P. (1998) J. Auton. Nerv. Syst. 72, 147-154) were done after a 30 min washout to attain a stable background. Cells were superfused with 0.01% BSA in Krebs buffer for seven 1-min fractions (baseline), then treated with 10 μM or 100 μM I-4-AA-RP alone, or together with efaroxan (10 μM), a prototypical I1-antagonist/I3-agonist. Controls included baseline release with vehicle alone (0-7 min) or vehicle containing efaroxan (5 min) before adding I-4-AA-RP. [^3H]products (>98% AA) collected in each 1-min fraction were expressed as fractional release defined as % total radioactivity incorporated into cells, corrected for [^3H]AA previously released (Ernsberger, P. (1998) J. Auton. Nerv. Syst. 72, 147-154).

I3R [2] = assay: I3R model: insulin release from rat islets of Langerhans; assay type: cell-based
Protocol: Islets of Langerhans from male Wistar rats were isolated by collagenase digestion in a medium of bicarbonate-buffered physiological saline solution containing 4 mM D-glucose and 1 mM CaCl2. Islets were selected under a binocular dissecting microscope and were used within two hours of isolation. Islets from humans were isolated from heart-beating cadaver organ donors by collagenase digestion and density gradient centrifugation (Chan, S. L. F., et al., 1997, Brit. J. Pharmacol. 120:926-932).
Incubations were done in 96-well plates. Isolated islets were incubated in 100 μl buffer solution supplemented with bovine serum albumin in humidified air: CO2 (95:5%) at 37° C. in the presence of test agents. To eliminate any potential alpha-2 responses, yohimbine (10 μM), a potent alpha2-adrenergic blocker, was included in all incubations. After 60 min incubation, samples of medium were removed for measurement of insulin release by radioimmunoassay using anti-bovine insulin antiserum. Presence of insulin in the test media were compared to controls; positive differences represented amounts of insulin released. In reversal experiments, diazoxide (e.g., 200 μM) was pre-incubated to block glucose-induced insulin release. In these studies, test reagents were used to determine if they were capable of overcoming diazoxide's inhibitory effects on K+ ATP channels, a well known action of imidazoline secretagogues in islet cells. For example, efaroxan (an inhibitor of I-1 responses in adrenal medullary cells) is a well known I-3 agonist, i.e., it stimulates (at 100 μM) release of insulin and overcomes diazoxide inhibition thus illustrating again the dictomy between I1 and I3 receptor subtypes.
I3R model: Insulin release from pancreas (Eglen, R. M., Hudson, A. L., Kendall, D. A., Nutt, D. J., Morgan, N. G., Wilson, V. G. & Dillon, M. P. (1998) TIPS 19, 381-390; Chan, S. L. F. (1998) Gen. Pharmacol. 31, 525-529; Morgan, N. G. (1999) Exp. Opin. Invest. Drugs 8, 575-584). Islets of Langerhans from male Wistar rats or human pancreata were isolated by collagenase digestion. Hand-picked islets were incubated in NaHCO3-buffered saline containing 1 mM CaCl2, 1 mg/ml BSA and test reagents. After incubation, insulin levels in supernatants were analyzed by RIA. The I3-blocker, KU-14R, served to verify I3R function.

Structure (SMILES): COc1nc(C)nc(Cl)c1N=C1NCCN1 [MOX, moxonidine, reference compound]
- lowering of MAP (SH rats; SH rats with IAA-RP-elevated MAP, 4 nmol, within 30 min): 37.3±6.3%
- reversal of IAA-RP's hypertensive effect (SH rats; SH rats, 4 nmol microinjected): completely reversed IAA-RP's effect

Structure (SMILES): CCC1(C2=NCCN2)Cc2ccccc2O1 (stereo not drawn) [efaroxan, reference compound]
- concentration of maximal stimulation of insulin release (I3R [1]): ~100 µM
- blockade of IAA-RP-induced [3H]AA release (I1R): abolished responses to IAA-RP; also recorded: blocked IAA-RP-induced release

Structure (SMILES): O=C(O)Cc1cncn1[C@@H]1O[C@H](CO)[C@@H](O)[C@H]1O [pros-IAA-R, 1-(β-D-ribofuranosyl)-imidazole-5-acetic acid]
- reversal of the inhibitory action of diazoxide on glucose-induced insulin release (I3R [2]): able to reverse the inhibitory action of diazoxide
- stimulation of insulin release (in words) (I3R [2]; rat islets): effects similar to or even greater than that seen with tele IAA-RP
